From BindingDB's records for doi:10.1074/jbc.M113.534859 (Karlsruhe Institute of Technology, 2014)

Molecular target: T1, Androgen receptor [646-919] (Human, UniProt P10275)
T1 construct: 646-919
T1 sequence (P10275 whole entry): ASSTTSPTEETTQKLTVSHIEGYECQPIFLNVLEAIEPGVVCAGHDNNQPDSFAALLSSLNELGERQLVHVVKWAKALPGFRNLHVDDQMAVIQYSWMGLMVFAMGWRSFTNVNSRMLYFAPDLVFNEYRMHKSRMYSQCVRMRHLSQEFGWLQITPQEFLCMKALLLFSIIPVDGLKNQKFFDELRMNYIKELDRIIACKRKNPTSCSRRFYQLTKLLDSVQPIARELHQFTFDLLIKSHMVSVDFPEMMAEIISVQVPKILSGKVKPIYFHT
Assay: Fluorescence Polarization Assay
Conditions: pH 6.5
Description: For the fluorescence polarization experiments, 5 nM fluorescently labeled Bag-1L (Bag-1L(1-20), fluorescein isothiocyanate (FITC)-[…]; Bag-1L(61-80), FITC-[…]) or SRC-2 peptide (FITC-[…]) was incubated with serially diluted AR-LBD (4 to 0.4 μM) in binding buffer (50 mM NaPO4, pH 6.5, 50 mM KCl, 1 mM DTT) and 10 μM DHT. The samples were then equilibrated for 45 min at ambient temperature. For the competition experiments, 400 to 0.4 nM Bag-1L core (GARRPR) or SRC-2 peptides ([…]) were incubated with 4 μM AR-LBD and 5 nM fluorescent Bag-1 or SRC-2 peptide. Binding was measured using polarization (excitation λ = 485 nm, emission λ = 530 nm) on a Synergy H1 hybrid reader (Biotek).

Substance | Kd
H-MAQRGGARRPRGDRERLGSR-OH [Bag-1L (1-20)] | 2000 nM
H-RGAAAGARRPRMKKKTRRRS-OH [Bag-1L (61-80)] | 3300 nM
H-HDSKGQTKLLQLLTTKSDQM-OH | 2800 nM
